Test results: US20240368125A1, “NOVEL PYRAZINYL-TRIAZOLE COMPOUNDS AS PESTICIDES” (Bayer Aktiengesellschaft, priority 2021, published 2024)

Columns and labels:
Type in all cases: in vivo
[1] = system: larvae of the banded cucumber beetle (Diabrotica balteata); experiment: Diabrotica balteata spray test; conditions: Diabrotica balteata, 168 h; 100 g/ha (=32 μg/well), wheat seeds, after 7 days; read-out: efficacy (seedlings grown)
Procedure, shortened: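 Germinated wheat seedlings (5 per well, on agar) sprayed with compound in acetone/DMF with emulsifier-containing water, then infested with 10–20 Diabrotica balteata larvae. Efficacy (%) scored after 7 days from seedling growth: 100% = growth as untreated uninfested control, 0% = no seedlings grown.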

[2] = system: green peach aphid (Myzus persicae); experiment: Myzus persicae oral test; conditions: 120 h
Protocol: Solvent: 100 parts by weight acetone
To produce a suitable preparation of active compound, 1 part by weight of active compound is mixed with the stated amount of solvent, and the concentrate is diluted with water to the desired concentration.
50 μL compound solution is filled in microtiter plates and 150 μL IPL41 insect medium (33%+15% sugar) is added to obtain a total volume of 200 μL per well. Afterwards the plates are sealed with parafilm through which a mixed population of the green peach aphid (Myzus persicae) can suck on the compound preparation.
(§1) After 5 days mortality in % is determined. 100% means all aphids have been killed and 0% means none of the aphids have been killed.

[3] = system: larvae of the southern green stink bug (Nezara viridula); experiment: Nezara viridula spray test; conditions: Nezara viridula, in Hordeum vulgare, 96 h
Protocol: Nezara viridula—Spray Test
(§2) Solvent: 78.0 parts by weight of acetone • • 1.5 parts by weight of dimethylformamide
(§3) Emulsifier: alkylarylpolyglycol ether
(§4) To produce a suitable preparation of active compound, 1 part by weight of active compound is mixed with the stated amount of solvent, and the concentrate is diluted with water, containing an emulsifier concentration of 1000 ppm, to the desired concentration. Further test concentrations are prepared by dilution with emulsifier containing water.
Barley plants (Hordeum vulgare) are sprayed with a test solution containing the desired concentration of the active ingredient and are infested with larvae of the southern green stink bug (Nezara viridula).
After 4 days mortality in % is determined. 100% means all the stink bugs have been killed; 0% means none of the stink bugs have been killed.

[4] = system: green peach aphid (Myzus persicae); experiment: Myzus persicae spray test (MYZUPE); conditions: in Brassica rapa, foliar, 120 h
Protocol: Myzus persicae—Spray Test
Solvent: 78.0 parts by weight acetone • 1.5 parts by weight dimethylformamide
as §3
as §4, with “solvents” for “solvent,”, “and” for “and the concentrate”
Chinese cabbage (Brassica pekinensis) leaf disks infected with all instars of the green peach aphid (Myzus persicae), are sprayed with a preparation of the active ingredient of the desired concentration.
as §1
Myzus persicae—Spray Test (MYZUPE
After the specified period of time, mortality in % is determined. 100% means all aphids have been killed and 0% means none of the aphids have been killed.

[5] = system: adult cat fleas (Ctenocephalides felis); experiment: Ctenocephalides felis in-vitro contact test, adult cat flea; conditions: Ctenocephalides felis; 1 μg/cm^2 (=100 g/ha), after 48 hours; read-out: efficacy (fleas dead or moribund)
[6] = system: adult brown dog ticks (Rhipicephalus sanguineus); experiment: Rhipicephalus sanguineus in-vitro contact test, adult brown dog ticks; conditions: Rhipicephalus sanguineus; 1 μg/cm^2 (=100 g/ha), after 48 hours; read-out: efficacy (ticks dead or moribund)
Procedure, shortened: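 Acetone solution rolled onto tube walls, 2 h at 30 rpm; 900 ppm → 5 μg/cm^2. Solvent evaporated, 5-10 adults/tube, perforated lid, lying, RT. 48 h: heat plate 45-50° C ≤5 min; immotile/uncoordinated = dead/moribund. 100% = all dead/moribund.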

[7] = system: fall armyworm larvae (Spodoptera frugiperda); experiment: Spodoptera frugiperda spray test (SPODFR); conditions: in Zea mays, 168 h
Procedure, shortened: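 Compound in acetone/dimethylformamide, diluted with water containing 1000 ppm alkylarylpolyglycol ether emulsifier. Maize leaf sections sprayed, dried, then infested with fall armyworm larvae. Mortality (%) scored after 7 days, 100% meaning all caterpillars killed.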

[8] = system: brown planthopper (Nilaparvata lugens); experiment: Nilaparvata lugens spray test; conditions: Nilaparvata lugens, in Oryza sativa, 96 h
Protocol: Nilaparvata lugens—Spray Test
as §2, §3
as §4, with “solvents” for “solvent,”, “and” for “and the concentrate”
Rice plants (Oryza sativa) are sprayed with a preparation of the active ingredient of the desired concentration and the plants are infested with the brown planthopper (Nilaparvata lugens).
After 4 days mortality in % is determined. 100% means all planthoppers have been killed and 0% means none of the planthoppers have been killed.

[9] = system: Rhipicephalus (Boophilus) microplus larvae (strain Parkhurst, resistant against synthetic pyrethroids); experiment: Rhipicephalus (Boophilus) microplus in-vitro contact test, larval cattle tick; conditions: Rhipicephalus microplus; 1 μg/cm^2 (=100 g/ha), after 48 hours; read-out: efficacy (larvae dead or moribund)
Procedure, shortened: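 Compound in acetone coated on glass tube inner walls; 900 ppm solution gives 5 μg/cm^2. Pyrethroid-resistant Parkhurst larvae (20-50 per tube) held at 27° C., 85% relative humidity; efficacy assessed after 48 h by scoring negative geotactic behavior after tapping larvae to tube bottom.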

[10] = system: adult unfed cat fleas (Ctenocephalides felis); experiment: Ctenocephalides felis oral test; conditions: 48 h, 100 ppm in citrated cattle blood, after 2 days
Protocol: Ctenocephalides felis—Oral Test
(§5) Solvent: Dimethyl Sulfoxide
To produce a suitable preparation of active compound, 10 mg of active compound are dissolved in 0.5 mL solvent, and the concentrate is diluted with citrated cattle blood to the desired concentration.
Approximately 20 adult unfed cat fleas (Ctenocephalides felis) are placed in a flea chamber whose top and bottom is covered with gauze. A chamber whose bottom is sealed with parafilm, is filled with the blood-compound solution and placed on top of the flea chamber, so that the fleas can suck the blood. The blood chamber is heated to 37° C. whereas the flea chamber is kept at room temperature.
After 2 days mortality in % is determined. 100% means all the fleas have been killed; 0% means none of the fleas have been killed.

[11] = system: adult engorged female ticks (Rhipicephalus microplus); experiment: Rhipicephalus (Boophilus) microplus injection test; conditions: 4 μg/tick, after 7 days
Protocol: Rhipicephalus (Boophilus) Microplus—Injection Test
as §5
To produce a suitable preparation of active compound, 10 mg of active compound are dissolved in 0.5 mL solvent, and the concentrate is diluted with solvent to the desired concentration.
Five adult engorged female ticks (Rhipicephalus microplus) are injected with 1 μL compound solution into the abdomen. The ticks are transferred into replica plates and incubated in a climate chamber.
After 7 days egg deposition of fertile eggs is monitored. Eggs where fertility is not visible are stored in a climate chamber till hatching after about 42 days. An efficacy of 100% means all eggs are infertile; 0% means all eggs are fertile.

| Compound | pest or weed control at 32 µg/disc, 100 g/ha [1] [%] | mortality at 20 ppm [2] [%] | mortality at 500 g/ha [3] [%] | mortality at 100 g/ha [4] [%] | pest or weed control at 1 µg/cm2 [5] [%] | pest or weed control at 1 µg/cm2, 100 g/ha [6] [%] | mortality at 100 g/ha [7] [%] | mortality at 500 g/ha [8] [%] | pest or weed control at 1 µg/cm2 [9] [%] | mortality at 100 ppm [10] [%] | efficacy (infertile eggs) [11] [%] |
| --- | --- | --- | --- | --- | --- | --- | --- | --- | --- | --- | --- |
| C[C@H](NC(=O)c1cc(C(F)(F)F)cc(S(C)(=O)=O)c1)c1ncnn1-c1cnc(C(N)=O)cn1 [Example I-030] | 100 | 100 | 90 |  |  |  |  |  |  |  |  |
| C[C@H](NC(=O)c1cc(OC(F)(F)F)cc(S(C)(=O)=O)c1)c1ncnn1-c1cnc(C(=O)N(C)C2CC2)cn1 [Example I-004] | 100 | 100 | 70 | 90 | 100 | 100 | 100 | 100 | 100 | 100 | 100 |
| CCN(C)C(=O)c1cnc(-n2ncnc2[C@H](C)NC(=O)c2cc(OC(F)(F)F)cc(S(C)(=O)=O)c2)cn1 [Example I-018] | 100 | 100 | 100 | 100 | 100 | 100 | 100 | 100 | 90 |  |  |
